Reference: patent US11492362B1, “Pyridine derivatives for the treatment of hyperproliferative diseases” (King Abdulaziz University, priority 2022, dated 2022)
≈ marks a conversion by molar mass, not a printed value. Each block holds one compound with its values, some of them ahead of it.

Assays:
[1] = tested on: HL-60 (leukemia) cell lines; assay: In vitro cytotoxicity, MTT assay; format: cell-based; details: Homo sapiens, 72 h; HL-60, MTT, 3 days
Method: Cells suspended in medium (2×10^4 cells/mL) were plated in 96-well culture plates and incubated at 37° C. in a 5% CO2 incubator. After 12 h, the test sample (2 μL) was added to the cells (2×10^4) in 96-well plates and cultured at 37° C. for 3 days. The cultured cells were mixed with 20 μL of MTT solution and incubated for 4 h at 37° C. The supernatant was carefully removed from each well and 100 μL of DMSO was added to each well to dissolve the formazan crystals which were formed by the cellular reduction of MTT. After mixing with a mechanical plate mixer, the absorbance of each well was measured by a microplate reader using a test wavelength of 570 nm. The results were expressed as the IC50 (μM), which induces a 50% inhibition of cell growth of the treated cells when compared to the growth of control cells. Each experiment was performed at least 3 times. There was a good reproducibility between the replicate wells with standard error [46].
In vitro cytotoxicity of the synthesized compounds 4, 6, and 7 was determined using the MTT assay against HL-60 (leukemia) cell lines. Doxorubicin (Doxo) one of the most efficient anticancer agentd was utilized as a reference compound in this study.

Leukemia HL-60 cell line = assay: Cell cycle analysis, PI staining and DNA flow cytometry; format: cell-based, human; details: HL-60, compound at its IC50 concentration
Method: (§1) For cell cycle analysis, cell pellets were fixed with 70% ethanol on ice for 15 min and collected again. The collected pellets were incubated with propidium iodide (PI) staining solution ([…], 0.1 mg/mL RNaseA, 0.05% Triton X-100) at room temperature for 1 hour and analyzed by Gallios® flow cytometer (Beckman Coulter, Brea, Calif., USA). Apoptosis detection was performed by FITC Annexin V/PI commercial kit (Becton Dickenson, Franklin Lakes, N.J., USA) following the manufacturer's protocol. The samples were analyzed by fluorescence-activated cell sorting (FACS) with a Gallios® flow cytometer (Beckman Coulter, Brea, Calif., USA) within 1 h after staining. Data were analyzed using Kaluzav® 1.2 (Beckman Coulter).
Cell cycle analysis was assessed in Leukemia HL-60 cell line after staining the nuclei with propidium iodide (PI) followed by DNA flow cytometry analysis.

Leukemia HL-60 cells = assay: Annexin V-FITC/PI apoptosis detection; format: cell-based, human; details: HL-60, Annexin V-FITC/PI
Method: as §1
Moreover, compound 4 increased the percentage of late apoptotic cells by 43.07-more than untreated control.

[2] = tested on: caspase 3/7 in Leukemia HL-60 cells; assay: Activated caspase 3/7 assay; format: cell-based, human; details: HL-60, IC50 concentration, 24 h, flow cytometry; untreated control 0.54%
Method: Activities of caspases-3 and -7 were measured using DRG Caspase-3 (human) ELISA (EIA-4860) kit (DRG International Inc., USA), Invitrogen. Caspase-7 (Active) (human) ELISA kit, Catalog #KHO1091 (96 tests) (Invitrogen Corporation, USA) according to the manufacturer's instructions.
The activation of caspase 3/7 was determined in compound 4 treated Leukemia HL-60 cells at IC50 concentration using green flow cytometry assay for 24 h.

HL-60 = assay: Confluency analysis; format: cell-based, human; details: HL-60, 50 μg/mL

- melting point: 236.4 to 237.2 °C
SMILES: CN(C)C=CC(=O)c1cccc(C(=O)C=CN(C)C)n1 [Compound 2, 2,6-Bis(3-dimethylamino-1-oxoprop-2-en-yl)pyridine]

SMILES: c1cc(-c2ccn3cnnc3n2)nc(-c2ccn3cnnc3n2)c1 [Compound 4, 2,6-bis([1,2,4]triazolo[4,3-a]pyrimidin-7-yl)pyridine]
- IC50 [1]: 3.28 ± 0.13 µg/mL (≈ 10.4 µM)
- percentage of cells at pre-G1 peak (Leukemia HL-60 cell line; control 1.42%): 19.32%
- cell percentage in the G2/M phase (Leukemia HL-60 cell line; untreated control 16.80%): 51.84%
- cell survival percentage in comparison with untreated control (Leukemia HL-60 cells): sharp decrease
- increase of percentage of early apoptotic cells versus untreated control (Leukemia HL-60 cells): 8.14 fold
- increase of percentage of late apoptotic cells versus untreated control (Leukemia HL-60 cells): 43.07
- level of caspase 3/7 percentage [2]: 10.04%
- cell morphology in the image (HL-60): round, high-contrast objects

SMILES: CN(C)/C=C/C(=O)c1cccc(C(=O)/C=C\Nc2sc3c(c2C#N)CCCC3)n1 [Compound 6, 2-(((Z)-3-(6-((E)-3-(dimethylamino)acryloyl)pyridin-2-yl)-3-oxoprop-1-en-1-yl)amino)-4,5,6,7-tetrahydrobenzo[b]thiophene-3-carbonitrile]
- IC50 [1]: 3.66 ± 0.11 µg/mL (≈ 9 µM)

SMILES: N#Cc1c(N/C=C\C(=O)c2cccc(C(=O)/C=C\Nc3sc4c(c3C#N)CCCC4)n2)sc2c1CCCC2 [Compound 7, 2,2′-(((1Z,1′Z)-pyridine-2,6-diylbis(3-oxoprop-1-ene-3,1-diyl))bis(azanediyl))bis(4,5,6,7-tetrahydrobenzo[b]thiophene-3-carbonitrile)]
- IC50 [1]: 28.5 ± 1.56 µg/mL (≈ 52.9 µM)

SMILES: COc1cccc2c1C(=O)c1c(O)c3c(c(O)c1C2=O)C[C@@](O)(C(=O)CO)C[C@@H]3O[C@H]1C[C@H](N)[C@H](O)[C@H](C)O1 [Dox, Doxorubicin, reference compound]
- IC50 [1]: 2.2 ± 0.08 µg/mL (≈ 4.05 µM)
